According to article PMC12406681 (Antimicrobial Agents and Chemotherapy, 2025):
Read-outs that look alike come from different tables or passages of the source.

Columns and labels:
Assay type in all cases: cell-based, La Crosse virus
LACV D35G mutant [1] = conditions: Vero cells; for Fold change (/original stock) / Fold change (/passage control): EC50 ratio; for EC50: mean ± SD
LACV V27A mutant [2] = test system: LACV V27A mutant
LACV D35G mutant [3] = test system: LACV D35G mutant
LACV V27A mutant [4] = conditions: Vero cells; for Fold change (/original stock) / Fold change (/passage control): EC50 ratio; for EC50: mean ± SD

Row | SMILES | Fold change (/original stock) (LACV D35G mutant [1]) | Fold change (/passage control) (LACV D35G mutant [1]) | EC50 (LACV D35G mutant [1]) [µM] | EC50 (LACV V27A mutant [2]) [µM] | Fold change (/original stock) (LACV V27A mutant [2]) | Fold change (/passage control) (LACV V27A mutant [2]) | EC50 (LACV D35G mutant [3]) [µM] | Fold change (/original stock) (LACV D35G mutant [3]) | Fold change (/passage control) (LACV D35G mutant [3]) | Fold change (/original stock) (LACV V27A mutant [4]) | Fold change (/passage control) (LACV V27A mutant [4]) | EC50 (LACV V27A mutant [4]) [µM]
1 | CC(C)N1CN(C2c3ccccc3CCc3ccccc32)n2cc(C(=O)O)c(=O)c(O)c2C1=O [CAPCA-1, carbamoyl pyridone carboxylic acid (CAPCA)-1] | >46.51 | >25.32 | > 20 | 4.63 ± 0.8 | 4.87 | 7.12 | 12.9 ± 2.22 | 13.57 | 19.83 | 12.91 | 7.03 | 5.55 ± 1.64
2 | NC(=O)c1nc(F)c[nH]c1=O [T-705, favipiravir, reference compound] | 1.51 | 1.30 | 57 ± 11.8 |  |  |  |  |  |  | 1.17 | 1.01 | 44.3 ± 5.15
